Experimental data from PubChem BioAssay (NCI).
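Where inhibition never reached the appropriate level, the endpoint shown equals the highest concentration tested. Otherwise, values were interpolated linearly from a five-concentration, 48-hour dose response in 96-well plates. TGI: concentration producing complete growth inhibition.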

Columns and labels:
Test in all cases: DTP human tumour cell line panel, 48 h
OVCAR-4 ovarian = system: OVCAR-4 ovarian
HOP-62 NSCLC = system: HOP-62 NSCLC
MALME-3M melanoma = system: MALME-3M melanoma
A549 NSCLC = system: A549 NSCLC
RPMI-8226 leukemia = system: RPMI-8226 leukemia
OVCAR-8 ovarian = system: OVCAR-8 ovarian
SR leukemia = system: SR leukemia
UACC-257 melanoma = system: UACC-257 melanoma
IGROV1 ovarian = system: IGROV1 ovarian
K-562 leukemia = system: K-562 leukemia
RXF 393 renal = system: RXF 393 renal
KM12 colon = system: KM12 colon
SK-MEL-2 melanoma = system: SK-MEL-2 melanoma
UO-31 renal = system: UO-31 renal
ACHN renal = system: ACHN renal
CCRF-CEM leukemia = system: CCRF-CEM leukemia
OVCAR-5 ovarian = system: OVCAR-5 ovarian
HL-60(TB) leukemia = system: HL-60(TB) leukemia
MCF7 breast = system: MCF7 breast
BT-549 breast = system: BT-549 breast

SMILES	TGI (OVCAR-4 ovarian) [µM]	TGI (HOP-62 NSCLC) [µM]	TGI (MALME-3M melanoma) [µM]	TGI (A549 NSCLC) [µM]	TGI (RPMI-8226 leukemia) [µM]	TGI (OVCAR-8 ovarian) [µM]	TGI (SR leukemia) [µM]	TGI (UACC-257 melanoma) [µM]	TGI (IGROV1 ovarian) [µM]	TGI (K-562 leukemia) [µM]	TGI (RXF 393 renal) [µM]	TGI (KM12 colon) [µM]	TGI (SK-MEL-2 melanoma) [µM]	TGI (UO-31 renal) [µM]	TGI (ACHN renal) [µM]	TGI (CCRF-CEM leukemia) [µM]	TGI (OVCAR-5 ovarian) [µM]	TGI (HL-60(TB) leukemia) [µM]	TGI (MCF7 breast) [µM]	TGI (BT-549 breast) [µM]
O=C1C(=O)N(C2CCCCC2)C(=S)N1C1CCCCC1	> 100	> 100	> 100	> 100	> 100	> 100	> 100	> 100	> 100	> 100	> 100	> 100	> 100	> 100	> 100	> 100	> 100	> 100	–	–
C=CC12CN(C)C3C4COC(CC41)C1(C(=O)Nc4ccccc41)C32 (stereo not given)	> 200	> 200	> 200	> 200	> 200	> 200	–	> 200	> 200	> 200	> 200	> 200	> 200	> 200	–	> 195	> 200	> 186	> 200	–
CCOC(=O)N1CCN(C(=O)Nc2cccc3ccccc23)CC1	> 10	> 10	> 10	> 10	> 10	> 10	> 10	–	> 10	> 10	> 10	> 10	> 10	> 10	> 10	> 10	> 10	> 10	> 10	–
CC(Oc1ccc(OCC2CCCCC2)cc1)C(=O)N(CCO)CCO (stereo not given)	> 100	–	> 100	> 100	–	> 100	–	> 100	> 100	> 100	> 100	> 100	> 100	> 100	> 100	> 100	–	> 100	–	–
CC(=O)O[C@]12CCC[C@H]1C1(O)C(O)CCC[C@H]12 (stereo not given in full)	> 100	> 100	> 100	> 100	> 100	> 100	> 100	> 100	–	> 100	> 100	> 100	> 100	> 100	> 100	> 100	–	> 100	–	–
CC(CCc1ccc2c(c1)c(=N)c1ccc(N)cc1n2O)CC(C)(C)C (stereo not given)	–	3.31	3.37	3.22	4.64	–	4.03	3.63	2.95	3.13	4.43	3.51	3.31	34	3.14	2.69	2.93	3.42	–	–
Cn1c(=O)nc2n(-c3ccc(Cl)cc3Cl)c3ccccc3nc-2c1=O	15.4	23.9	3.26	13.3	> 100	14.1	> 100	–	27	22.6	15.4	15.8	17.4	26	–	–	49	27.8	–	–
O=C(Nc1ccc([N+](=O)[O-])cc1)C(=O)C(C(=O)c1ccccc1F)C1OC(=O)c2ccccc21 (stereo not given)	> 100	> 100	–	> 100	68.9	> 100	64.7	> 100	> 100	> 100	79.6	> 100	71.6	> 100	> 100	58.4	> 100	66.1	–	–
CCOC(=O)C(O)(NC(=O)Nc1ccc(F)cc1)C(F)(F)F (stereo not given)	–	–	–	> 100	> 100	> 100	> 100	> 100	> 100	> 100	> 100	–	> 100	> 100	> 100	> 100	> 100	> 100	–	> 100
Cc1c2cnccc2nc2[nH]c3ccncc3c12	> 100	18.4	14.1	> 100	19.5	> 100	11.5	94.9	20.4	> 100	–	41.8	27.6	28.8	13.6	32.6	40.5	61.9	–	63.8
COC(=O)[C@@]12OC[C@]34C([C@@H](O)C1O)[C@@]1(C)CC(=O)C(O)=C(C)C1C[C@H]3OC(=O)[C@H](OC(=O)CC(C)C(F)(F)F)[C@H]42 (stereo not given in full)	0.561	0.594	0.0438	0.492	0.0512	0.491	0.0215	0.547	1.05	–	0.471	0.563	0.362	1.06	0.301	–	1.18	0.0175	–	–
CCOC(=O)CN1CCSC1=NC#N	> 100	> 100	> 100	> 100	> 100	> 100	–	> 100	> 100	> 100	> 100	> 100	> 100	> 100	–	> 100	> 100	> 100	> 100	–
O=[N+]([O-])/C(C(Cl)=C(Cl)Cl)=C1/OCCS1	> 100	40.4	40.8	55.6	66.2	34.4	71.5	67.3	47.7	77.7	41.3	94.3	57.2	40.2	42.2	35.4	92.6	37.6	> 100	–
CCc1cc2c(cc1CCCC(=O)O)CC1(Cc3ccc(C(=O)O)cc3C1)C2 (stereo not given)	> 100	> 100	> 100	> 100	> 100	> 100	> 100	> 100	> 100	> 100	> 100	> 100	> 100	> 100	> 100	> 100	> 100	> 100	> 100	–
